# Bridge positions count the residues as written; N and C are the ends. Peptide text beside a SMILES is read from it.
# Key:
# [1] = target: T1, green fluorescent protein (GFP)-fused human ferroportin (Homo sapiens, UniProt Q9NP59); assay: Hepcidin bioactivity assay: GFP-ferroportin internalization and degradation; format: cell-based; settings: for potency as inducer of ferroportin degradation: synthetic peptides, compared with hepcidin-25
# T1 construct: expressed in transfected cells
# T1 sequence (Q9NP59 1-571): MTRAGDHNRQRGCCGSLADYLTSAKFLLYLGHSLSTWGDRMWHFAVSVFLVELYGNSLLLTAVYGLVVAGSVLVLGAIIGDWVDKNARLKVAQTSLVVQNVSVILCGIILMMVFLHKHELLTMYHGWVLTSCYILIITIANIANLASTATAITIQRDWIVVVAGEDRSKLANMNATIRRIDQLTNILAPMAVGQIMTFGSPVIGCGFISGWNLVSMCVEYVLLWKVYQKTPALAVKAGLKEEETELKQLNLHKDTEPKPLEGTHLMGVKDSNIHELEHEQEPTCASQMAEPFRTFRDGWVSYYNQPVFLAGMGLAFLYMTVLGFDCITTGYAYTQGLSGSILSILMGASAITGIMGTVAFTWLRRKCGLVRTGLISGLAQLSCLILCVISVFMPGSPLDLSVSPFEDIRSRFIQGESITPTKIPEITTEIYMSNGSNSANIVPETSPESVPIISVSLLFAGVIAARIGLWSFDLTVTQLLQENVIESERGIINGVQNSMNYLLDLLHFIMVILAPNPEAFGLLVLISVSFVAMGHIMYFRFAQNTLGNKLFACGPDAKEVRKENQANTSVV
# Excerpt: A stable cell line engineered for inducible expression of green fluorescent protein (GFP)-fused human ferroportin was used as a test system to determine hepcidin-24 activity relative to hepcidin-25, 22 and 20. In this cell system, ferroportin internalization and degradation provided a means to quantify hepcidin activity. The assay was implemented basically as described by Nemeth et al., [33] except that fluorescence was quantified in triplicate wells on a microplate reader. To determine EC50 values for hepcidin-25 and hepcidin-24, a curve was fitted by nonlinear regression with a four parameter logistic equation using Prism v5 (GraphPad).
# Figure 5 Hepcidin-mediated ferroportin internalization. Different concentrations of synthetic hepcidin-25, -24, -22 and -20 (indicated in nM on the horizontal axis) were added to the growth medium of a stable cell line that expresses green fluorescent protein-fused ferroportin (GFP-FPN). Hepcidin-mediated GFP-FPN internalization and degradation was quantified by measuring cellular fluorescence levels in arbitrary units.
# [2] = Stability of hepcidin in plasma/serum at room temperature (WCX-TOF MS); format: in vitro ADME, human; settings: for Hepcidin level after one week at RT / Hepcidin level after one day at RT: % of fresh sample, human heparin plasma, 19 IC patients + 5 controls, results <1.0 nM removed, WCX-TOF MS, hepcidin-25^+40 internal standard, n = 24/15/13/18/11; for Hepcidin level after one week at RT: CV (Hep-25/-24/-22/-20/Total) 23/29/29/38/17; for Hepcidin level after one day at RT: CV (Hep-25/-24/-22/-20/Total) 8/21/14/25/5; for Hepcidin level after one week at RT, without protease inhibitors / Hepcidin level after one day at RT, without protease inhibitors: results <1 nM excluded; for Hepcidin level after one week at RT, without protease inhibitors: CV (Hep-25/-24/-22/-20) 30/31/23/41; for Hepcidin level after one day at RT, without protease inhibitors: CV (Hep-25/-24/-22/-20) 13/20/11/11; for remaining at 168 h / remaining at 1 day: human; for remaining at 168 h: read-out: Hepcidin level after one week at RT, with protease inhibitors; for remaining at 1 day: read-out: Hepcidin level after one day at RT, with protease inhibitors
# Procedure: Spectra were analyzed by using Bruker Daltonics FlexAnalysis software.
# To assess the stability of hepcidin in serum and plasma matrices, we kept samples from intensive care patients (n = 20) and healthy controls (n = 5) at room temperature for 0–7 days followed by WCX-TOF MS analysis using the hepcidin-25^+40 internal standard. […] For the samples at day 1 and day 7, the mean decrease in hepcidin-25 for the 5 controls and 20 intensive care patients was 90% (CV, 8% ) and 55% (CV, 23%), respectively (Table 3).
# [3] = average, % of fresh, 10 IC patients and 5 controls; for Hepcidin level after one day at 4°C, EDTA plasma: CV (Hep-25/-24/-22/-20) 11/6/11/22
# Procedure: (§1) Samples were used for measurement of hepcidin between 4–7 hrs after blood drawing and/or pooled and/or stored in aliquots at various temperatures for prolonged periods of time.
# (§2) Fresh samples were measured within 2–4 hrs hours after blood drawing and stored in aliquots at various temperatures for prolonged incubation.
# (§3) Mass-to-charge (m/z) spectra were generated by using MALDI-TOF MS (Microflex LT, Bruker Daltonics). Spectra were analyzed by using Bruker Daltonics FlexAnalysis software. […] Total hepcidin concentration was defined as the sum of hepcidin-25, -24, -22, and -20 concentrations.
# (§4) Using the novel heavy hepcidin-25 internal standard, we assessed changes in hepcidin-25 and the smaller isoforms in various samples containing various anticoagulants ex vivo at room temperature (RT), 4°C, −20°C and −80°C. More specifically, changes in hepcidin concentrations relative to those found in freshly collected samples were determined i) at storage at RT and 4°C on day 0 (fresh samples), 1 (14–22 hrs), 2, 3, and 7 days after sampling/storage, ii) at −20°C after 1 week, and after 1, 4 and 6 months of storage and iii) at −80°C at after 6 months of storage.
# [4] = average, % of fresh, 10 IC patients and 5 controls, n = 15/8/6/9, hepcidin-20 unreliable (additional peak); for Hepcidin level after one week at -20°C, EDTA plasma: CV (Hep-25/-24/-22/-20) 11/12/11/28
# Procedure: as §1, §2, §3, §4
# in vitro [5] = settings: human
# Procedure: as §1, §2, §3, §4
# in vitro [6] = settings: human; remark: listed apart in the source
# Procedure: as §1, §2, §3, §4
# [7] = average, % of fresh, 7 days, heparin plasma, 10 IC patients, n = 10/8/7/8
# [8] = average, % of fresh, heparin plasma, 10 IC patients, n = 10/8/7/8
# [9] = average, % of fresh, 7 days, heparin plasma, 10 IC patients, Complete Mini (Roche), CV (Hep-25/-24/-22/-20) 25/35/9/25, n = 10/8/7/8
# [10] = average, % of fresh, heparin plasma, 10 IC patients, Complete Mini (Roche), 1 tablet in 200 µL PBS, 20 µL per 1 ml plasma, CV (Hep-25/-24/-22/-20) 8/30/4/14, n = 10/8/7/8
# [11] = results <1.0 nM deleted, n = 15/8/6/9
# 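Throughout, for Hepcidin level after one month at -20°C, EDTA plasma: hepcidin in stored plasma or serum quantified by MALDI-TOF MS against a heavy hepcidin-25 internal standard, expressed relative to concentrations in freshly collected samples.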
# 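Throughout, for Hepcidin level after one week at -20°C, EDTA plasma: hepcidin in stored plasma or serum quantified by MALDI-TOF MS against a heavy hepcidin-25 internal standard, expressed relative to concentrations in freshly collected samples.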
Structure (SMILES),activity relative to hepcidin-24 (fold lower) [1],potency as inducer of ferroportin degradation [1],"Hepcidin level after one week at RT ([2]; average, 7 days)",Hepcidin level after one day at RT ([2]; average),"Hepcidin level after one week at RT, without protease inhibitors [2, 7]","Hepcidin level after one day at RT, without protease inhibitors [2, 8]","remaining at 168 h [2, 9]","remaining at 1 day [2, 10]","Hepcidin level after one day at 4°C, EDTA plasma [3, 11]","Hepcidin level after one week at -20°C, EDTA plasma [4]",remaining at 672 h (in vitro [5]; heparin plasma),remaining at 168 h (in vitro [6]; EDTA plasma),remaining at 168 h (in vitro [6]; heparin plasma),remaining at 672 h (in vitro [5]; EDTA plasma),further results
"CC[C@H](C)[C@H](N)C(=O)N[C@H]1CSSC[C@@H](C(=O)N[C@@H](CCCCN)C(=O)N[C@H](C(=O)O)[C@@H](C)O)NC(=O)[C@@H]2CSSC[C@H](NC(=O)[C@H](Cc3ccccc3)NC(=O)[C@H]([C@@H](C)CC)NC1=O)C(=O)N[C@H]1CSSC[C@H](NC(=O)[C@H](CCCCN)NC(=O)[C@H](CO)NC(=O)[C@H](CCCNC(=N)N)NC(=O)[C@H](Cc3c[nH]cn3)NC(=O)[C@@H]3CSSC[C@H](NC(=O)CNC1=O)C(=O)N3)C(=O)NCC(=O)N[C@@H](CCSC)C(=O)N2 [Hepcidin-20] (H-ICIFCCGCCHRSKCGMCCKT-OH; disulfide 2-18, 5-17, 6-14, 8-9 (inferred); N-terminus and C-terminus assumed)",at least 10 fold,significantly less potent inducer of ferroportin degradation than hepcidin-25,138%,115%,164%,141%,114%,118%,94%,183%,102%,–,–,–,"level of isoform emerging in control samples at RT ([2]; heparin plasma, healthy controls, 0–7 days): below 1 nM; Hepcidin level after one week at 4°C, heparin plasma ([3]; 7 days, CV (Hep-25/-24/-22/-20) 5/8/8/21, n = 15/7/6/10): 114%; Hepcidin level after one week at 4°C, EDTA plasma ([3]; 7 days, CV (Hep-25/-24/-22/-20) 9/8/18/21, n = 15/8/6/9, hepcidin-20 in stored EDTA plasma unreliable (additional peak)): 165%; Hepcidin level after one month at -20°C, EDTA plasma ([4]; 4 weeks, CV (Hep-25/-24/-22/-20) 9/11/19/40): 210%"
"CC[C@H](C)[C@@H]1NC(=O)[C@@H](NC(=O)[C@@H](NC(=O)[C@@H]2CCCN2C(=O)[C@@H](N)Cc2ccccc2)[C@@H](C)CC)CSSC[C@@H](C(=O)N[C@@H](CCCCN)C(=O)N[C@H](C(=O)O)[C@@H](C)O)NC(=O)[C@@H]2CSSC[C@H](NC(=O)[C@H](Cc3ccccc3)NC1=O)C(=O)N[C@H]1CSSC[C@H](NC(=O)[C@H](CCCCN)NC(=O)[C@H](CO)NC(=O)[C@H](CCCNC(=N)N)NC(=O)[C@H](Cc3c[nH]cn3)NC(=O)[C@@H]3CSSC[C@H](NC(=O)CNC1=O)C(=O)N3)C(=O)NCC(=O)N[C@@H](CCSC)C(=O)N2 [Hepcidin-22] (H-FPICIFCCGCCHRSKCGMCCKT-OH; disulfide 4-20, 7-19, 8-16, 10-11)",at least 10 fold,significantly less potent inducer of ferroportin degradation than hepcidin-25,150%,127%,160%,135%,117%,105%,104%,–,89%,106%,96%,96%,"Hepcidin level after one day at 4°C, heparin plasma ([3]; results <1.0 nM deleted, CV (Hep-25/-24/-22/-20) 7/5/13/20, n = 15/7/6/10): 104%; remaining at 1 week (in vitro [5]; EDTA plasma): 98%"
"CC[C@H](C)[C@@H]1NC(=O)[C@@H](NC(=O)[C@@H](NC(=O)[C@@H]2CCCN2C(=O)[C@H](Cc2ccccc2)NC(=O)[C@H](Cc2c[nH]cn2)NC(=O)[C@@H](N)[C@@H](C)O)[C@@H](C)CC)CSSC[C@@H](C(=O)N[C@@H](CCCCN)C(=O)N[C@H](C(=O)O)[C@@H](C)O)NC(=O)[C@@H]2CSSC[C@H](NC(=O)[C@H](Cc3ccccc3)NC1=O)C(=O)N[C@H]1CSSC[C@H](NC(=O)[C@H](CCCCN)NC(=O)[C@H](CO)NC(=O)[C@H](CCCNC(=N)N)NC(=O)[C@H](Cc3c[nH]cn3)NC(=O)[C@@H]3CSSC[C@H](NC(=O)CNC1=O)C(=O)N3)C(=O)NCC(=O)N[C@@H](CCSC)C(=O)N2 [Hepcidin-24] (H-THFPICIFCCGCCHRSKCGMCCKT-OH; disulfide 6-22, 9-21, 10-18, 12-13)",–,significantly less potent inducer of ferroportin degradation than hepcidin-25,104%,120%,116%,128%,–,–,–,96%,114%,113%,106%,91%,"EC50 [1]: 192 nM; activity relative to hepcidin-25 (fold lower) ([1]; relative to hepcidin-25): 10 fold; Hepcidin level after one week at RT, with protease inhibitors [2, 9]: 133%; Hepcidin level after one day at RT, with protease inhibitors [2, 10]: 122%"

# From PMC3790851, “Improved Mass Spectrometry Assay For Plasma Hepcidin: Detection and Characterization of a Novel Hepcidin Isoform” (PLoS ONE, 2013)
